Target: T1, KATP channels (Homo sapiens, UniProt O60706+Q14654)
T1 construct: TE671 human medulloblastoma cells were obtained from ATCC; host or cells: TE671 human medulloblastoma cells
Assay: Potassium Channel Assay (FLIPR membrane potential dye, TE671 cells)
Type: cell-based
Settings: TE671 human medulloblastoma cells, room temperature, fluorescence change monitored for 3 minutes
Protocol: TE671 human medulloblastoma cells were obtained from ATCC and grown in Dulbecco's modified Eagle's medium (DMEM) supplemented with 10% fetal bovine serum, 100 U/ml penicillin and 100 U/ml streptomycine.
The day before testing, the cells were plated in black 96-well plates at 50K/well. On the day of testing, the growth media was removed, then 100 μl of FLIPR buffer (20 mM HEPES, 120 mM NaCl, 2 mM KCl, 2 mM CaCl2, 1 mM MgCl2, 5 mM Glucose) and 100 μl of Membrane Potential Assay Dye (Molecular Devices) dissolved in FLIPR buffer were added to each well. The cells were incubated at room temperature for 15 to 30 min.
The effect of test compounds on KATP channels were evaluated on a fluorometric imaging plate reader (FLIPR, Molecular Devices) at room temperature. After a baseline period, 50 μl of 5× stock solution of test compound prepared in FLIPR buffer was added and fluorescence change was monitored for 3 minutes. After this reading, glyburide, a KATP channel blocker, was added to a final concentration of 5 μM to check the specificity of the test compound as a KATP channel opener. Hyperpolarization resulting from KATP channel opening was observed as a decrease in fluorescence intensity.
Representative compounds of the present invention were tested according to the procedure described above, with results as listed in Table 7 below.

T1 sequence (Q14654 whole entry): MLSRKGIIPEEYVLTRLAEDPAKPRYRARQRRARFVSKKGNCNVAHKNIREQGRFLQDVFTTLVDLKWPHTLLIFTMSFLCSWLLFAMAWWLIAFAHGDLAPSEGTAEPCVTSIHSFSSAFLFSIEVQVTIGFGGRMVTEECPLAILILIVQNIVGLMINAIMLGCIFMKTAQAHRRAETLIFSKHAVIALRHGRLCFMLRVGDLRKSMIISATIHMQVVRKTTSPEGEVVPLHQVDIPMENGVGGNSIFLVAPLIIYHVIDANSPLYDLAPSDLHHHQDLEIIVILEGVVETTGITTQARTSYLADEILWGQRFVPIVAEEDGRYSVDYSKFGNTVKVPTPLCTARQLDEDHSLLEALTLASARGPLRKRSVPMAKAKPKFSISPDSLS
T1 sequence (O60706 1-1549 isoform O60706-2): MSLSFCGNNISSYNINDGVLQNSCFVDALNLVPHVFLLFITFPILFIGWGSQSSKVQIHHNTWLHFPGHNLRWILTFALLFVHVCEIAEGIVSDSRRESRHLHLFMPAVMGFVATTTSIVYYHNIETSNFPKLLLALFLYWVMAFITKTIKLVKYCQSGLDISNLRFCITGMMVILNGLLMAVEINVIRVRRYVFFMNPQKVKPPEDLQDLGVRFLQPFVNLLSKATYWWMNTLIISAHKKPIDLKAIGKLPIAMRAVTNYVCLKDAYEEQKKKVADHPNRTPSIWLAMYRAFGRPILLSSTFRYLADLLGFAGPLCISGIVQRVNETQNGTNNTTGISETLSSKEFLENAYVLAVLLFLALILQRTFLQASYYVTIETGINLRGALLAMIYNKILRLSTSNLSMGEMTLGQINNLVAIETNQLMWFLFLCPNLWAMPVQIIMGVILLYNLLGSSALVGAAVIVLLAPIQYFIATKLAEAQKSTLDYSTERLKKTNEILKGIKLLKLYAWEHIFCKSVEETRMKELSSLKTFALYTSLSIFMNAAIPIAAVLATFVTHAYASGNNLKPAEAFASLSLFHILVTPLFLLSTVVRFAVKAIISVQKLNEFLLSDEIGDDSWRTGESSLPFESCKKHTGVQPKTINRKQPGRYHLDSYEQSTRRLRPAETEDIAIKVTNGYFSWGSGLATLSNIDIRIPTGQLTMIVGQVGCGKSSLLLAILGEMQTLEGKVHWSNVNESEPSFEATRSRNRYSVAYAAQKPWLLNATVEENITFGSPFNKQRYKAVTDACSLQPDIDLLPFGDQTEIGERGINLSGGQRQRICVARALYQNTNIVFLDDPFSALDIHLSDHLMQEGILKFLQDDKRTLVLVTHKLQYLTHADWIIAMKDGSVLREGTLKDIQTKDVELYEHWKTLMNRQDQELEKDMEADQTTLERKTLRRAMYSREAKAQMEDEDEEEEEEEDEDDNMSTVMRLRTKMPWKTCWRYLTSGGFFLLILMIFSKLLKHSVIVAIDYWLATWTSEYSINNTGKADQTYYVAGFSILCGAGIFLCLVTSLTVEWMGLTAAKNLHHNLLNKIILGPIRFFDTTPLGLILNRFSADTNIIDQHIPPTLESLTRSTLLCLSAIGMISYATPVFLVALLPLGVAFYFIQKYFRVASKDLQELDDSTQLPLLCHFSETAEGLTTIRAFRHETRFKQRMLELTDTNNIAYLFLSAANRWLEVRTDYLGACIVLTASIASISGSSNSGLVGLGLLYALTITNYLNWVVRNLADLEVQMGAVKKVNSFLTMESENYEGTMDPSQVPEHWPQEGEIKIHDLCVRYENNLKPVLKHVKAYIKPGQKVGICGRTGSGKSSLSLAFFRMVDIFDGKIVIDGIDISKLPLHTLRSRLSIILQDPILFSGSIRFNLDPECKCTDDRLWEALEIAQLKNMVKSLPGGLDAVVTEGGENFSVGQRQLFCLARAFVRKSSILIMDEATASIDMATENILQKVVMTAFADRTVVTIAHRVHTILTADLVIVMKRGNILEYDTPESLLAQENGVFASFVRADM

Question: Which “% Stimulation” value does the source give for `COc1ccc(CO)cc1-c1ccncc1CO` [Compound 58] here?
Answer: 14%

Question: What about the EC50 of the same compound?
Answer: > 30 µM

Question: Which “% Stimulation” value does the source give for `N#Cc1cccc(C2OC(O)c3cnccc32)c1` (centres unmarked) [Compound 55, 3-(3-Hydroxy-1,3-dihydro-furor[3,4-c]pyridin-1-yl)-benzonitrile] here?
Answer: 24%

Question: And the EC50?
Answer: > 30 µM

Question: `O=C(c1ccccc1)c1ccncc1C(O)c1ccccc1` (centres unmarked) [Compound 43, [3-(Hydroxy-phenyl-methyl)-pyridin-4-yl]-phenyl-methanone] was tested. Which EC50 did it give?
Answer: 17.4 µM

Question: For `N#Cc1cccc(-c2ccncc2C(O)c2ccc(Cl)c(Cl)c2)c1` (centres unmarked) [Compound 24, 3-{3-[(3,4-Dichloro-phenyl)-hydroxy-methyl]-pyridin-4-yl}-benzonitrile], which EC50 is on record?
Answer: 14.5 µM

Question: With `CCOC(=O)c1cnc2cc(C(F)(F)F)ccc2c1-c1cc(C=O)ccc1OC` [Compound 9, 4-(5-Formyl-2-methoxy-phenyl)-7-trifluoromethyl-quinoline-3-carboxylic acid ethyl ester] as the compound, how does the EC50 read?
Answer: 7.73 µM

Question: Which EC50 does the source give for `Cc1ccccc1C(O)c1cnccc1-c1cccc(C#N)c1` (centres unmarked) [Compound 31, 3-{3-[Hydroxy-(2-methyl-phenyl)-methyl]-pyridin-4-yl}-benzonitrile] here?
Answer: 15 µM

Question: How did the “% Stimulation” value turn out when `COc1ccc(F)cc1C(O)c1cnccc1-c1cccc(C#N)c1` (centres unmarked) [Compound 36, 3-{3-[(5-Fluoro-2-methoxy-phenyl)-hydroxy-methyl]-pyridin-4-yl}-benzonitrile] was run?
Answer: 24%

Question: What about the EC50 of the same compound?
Answer: > 30 µM

Question: `COc1ccc(C(O)c2cnccc2-c2cccc(C#N)c2)cc1F` (centres unmarked) [Compound 37, 3-{3-[(3-Fluoro-4-methoxy-phenyl)-hydroxy-methyl]-pyridin-4-yl}-benzonitrile] was tested. Which EC50 did it give?
Answer: 9.59 µM

Question: Which EC50 does the source give for `N#Cc1cccc(C2OCc3cnccc32)c1` (centres unmarked) [Compound 66, 3-(1,3-Dihydro-furor[3,4-c]pyridin-1-yl)-benzonitrile] here?
Answer: 8.19 µM

Question: How did the EC50 turn out when `N#Cc1cccc(-c2ccncc2C(O)C(F)(F)F)c1` (centres unmarked) [Compound 39, 3-[3-(2,2,2-Trifluoro-1-hydroxy-ethyl)-pyridin-4-yl]-benzonitrile] was run?
Answer: 10.5 µM

Question: How did the EC50 turn out when `N#Cc1cccc(-c2ccncc2C(O)c2ccc(F)c(F)c2)c1` (centres unmarked) [Compound 23, 3-{3-[(3,4-Difluoro-Phenyl)-hydroxy-methyl]-pyridin-4-yl}-benzonitrile] was run?
Answer: 11.4 µM

Question: With `CC(C)C(O)c1cnccc1Br` (centres unmarked) [Compound 63, 1-(4-Bromo-pyridin-3-yl)-2-methyl-propan-1-ol] as the compound, how does the EC50 read?
Answer: 7.97 µM

Question: Which “% Stimulation” value does the source give for `COc1ccc(C(O)c2cnccc2-c2cccc(C#N)c2)cc1` (centres unmarked) [Compound 30, 3-{3-[Hydroxy-(4-methoxy-phenyl)-methyl]-pyridin-4-yl}-benzonitrile] here?
Answer: 7%

Question: What about the EC50 of the same compound?
Answer: > 30 µM

Question: With `Cc1ccc(C(O)c2cnccc2-c2cccc(C#N)c2)cc1` (centres unmarked) [Compound 32, 3-{3-[Hydroxy-(4-methyl-phenyl)-methyl]-pyridin-4-yl}-benzonitrile] as the compound, how does the EC50 read?
Answer: 8.48 µM

Question: Which EC50 does the source give for `CC(C)(C)c1ccc(C(O)c2cnccc2-c2cccc(C#N)c2)cc1` (centres unmarked) [Compound 27, 3-{3-[(4-tert-Butyl-phenyl)-hydroxy-methyl]-pyridin-4-yl}-benzonitrile] here?
Answer: 10.7 µM

Question: For `CCOC(=O)c1cnc2cc(C(F)(F)F)ccc2c1OS(=O)(=O)C(F)(F)F` [Compound 15, 4-Trifluoromethanesulfonyloxy-7-trifluoromethyl-quinoline-3-carboxylic acid ethyl ester], which EC50 is on record?
Answer: 6.27 µM

Question: With `CCOC(=O)c1ccc(-c2c(C(=O)OCC)cnc3cc(C(F)(F)F)ccc23)cc1` [Compound 4, 4-(4-Ethoxycarbonyl-phenyl)-7-trifluoromethyl-quinoline-3-carboxylic acid ethyl ester] as the compound, how does the “% Stimulation” value read?
Answer: 38%

Question: What about the EC50 of the same compound?
Answer: > 30 µM

Question: With `CCOC(=O)c1cnc2cc(C(F)(F)F)ccc2c1-c1cc(C(F)(F)F)cc(C(F)(F)F)c1` [Compound 3, 4-(3,5-Bis-trifluoromethyl-phenyl)-7-trifluoromethyl-quinoline-3-carboxylic acid ethyl ester] as the compound, how does the “% Stimulation” value read?
Answer: 19%

Question: What about the EC50 of the same compound?
Answer: > 30 µM

Question: `CCOC(=O)c1cnc2cc(C(F)(F)F)ccc2c1-c1cc(C)cc(OC)c1` [Compound 2, 4-(3-Methoxy-5-methyl-phenyl)-7-trifluoromethyl-quinoline-3-carboxylic acid ethyl ester] was tested. Which “% Stimulation” value did it give?
Answer: 23%

Question: And the EC50?
Answer: > 30 µM

Question: `N#Cc1cccc(C(O)c2ccncc2CO)c1` (centres unmarked) [Compound 57, 3-[Hydroxy-(3-hydroxymethyl-pyridin-4-yl)-methyl]-benzonitrile] was tested. Which “% Stimulation” value did it give?
Answer: 16%

Question: And the EC50?
Answer: > 30 µM

Question: With `COc1ccc(OC)c(C(O)c2cnccc2C(=O)c2ccccc2)c1` (centres unmarked) [Compound 46, {3-[(2,5-Dimethoxy-phenyl)-hydroxy-methyl]-pyridin-4-yl}-phenyl-methanone] as the compound, how does the EC50 read?
Answer: 12.1 µM

Question: How did the EC50 turn out when `N#Cc1cccc(-c2ccncc2C(O)c2cccc(F)c2)c1` (centres unmarked) [Compound 21, 3-{3-[(3-Fluoro-phenyl)-hydroxy-methyl]-pyridin-4-yl}-benzonitrile] was run?
Answer: 23.2 µM

Question: `CCOC(=O)c1cnc2cc(C(F)(F)F)ccc2c1-c1ccccc1` [Compound 6, 4-Phenyl-7-trifluoromethyl-quinoline-3-carboxylic acid ethyl ester] was tested. Which “% Stimulation” value did it give?
Answer: 42%

Question: What about the EC50 of the same compound?
Answer: > 30 µM

Question: Which results are given for `OCc1cnccc1C(O)c1ccccc1` (centres unmarked) [Compound 56, (3-Hydroxymethyl-pyridin-4-yl)-phenyl-methanol]?
Answer: % Stimulation: 33%; EC50: > 30 µM

Question: Which “% Stimulation” value does the source give for `CCOC(=O)c1cnc2cc(C(F)(F)F)ccc2c1-c1cccc(C=O)c1` [Compound 11, 4-(3-Formyl-phenyl)-7-trifluoromethyl-quinoline-3-carboxylic acid ethyl ester] here?
Answer: 2%

Question: What about the EC50 of the same compound?
Answer: > 30 µM

Question: With `CC(O)c1cnccc1-c1cccc(C#N)c1` (centres unmarked) [Compound 52, 3-[3-(1-Hydroxy-ethyl)-pyridin-4-yl]-benzonitrile] as the compound, how does the EC50 read?
Answer: 17.2 µM

Question: How did the EC50 turn out when `N#Cc1cccc(C(=O)c2ccncc2C(O)c2ccccc2)c1` (centres unmarked) [Compound 48, 3-[3-(Hydroxy-phenyl-methyl)-pyridine-4-carbonyl]-benzonitrile] was run?
Answer: 14.3 µM

Question: `OC1OC(c2ccccc2)c2ccncc21` (centres unmarked) [Compound 65, 1-Phenyl-1,3-dihydro-furo[3,4-c]pyridin-3-ol] was tested. Which “% Stimulation” value did it give?
Answer: 34%

Question: And the EC50?
Answer: > 30 µM

Question: For `CCOC(=O)c1cnc2cc(C(F)(F)F)ccc2c1-c1cc(C(F)(F)F)ccc1F` [Compound 8, 4-(2-Fluoro-5-trifluoromethyl-phenyl)-7-trifluoromethyl-quinoline-3-carboxylic acid ethyl ester], which “% Stimulation” value is on record?
Answer: 31%

Question: And the EC50?
Answer: > 30 µM

Question: Which “% Stimulation” value does the source give for `N#Cc1cccc(-c2ccncc2CO)c1` [Compound 50, 3-(3-Hydroxymethyl-pyridin-4-yl)-benzonitrile] here?
Answer: 19%

Question: What about the EC50 of the same compound?
Answer: > 30 µM

Question: With `N#Cc1cccc(-c2ccncc2C(O)c2cc(Cl)cc(Cl)c2)c1` (centres unmarked) [Compound 25, 3-{3-[(3,5-Dichloro-phenyl)-hydroxy-methyl]-pyridin-4-yl}benzonitrile] as the compound, how does the EC50 read?
Answer: 9.82 µM

Question: For `COc1cccc(C(O)c2cnccc2-c2cccc(C#N)c2)c1` (centres unmarked) [Compound 29, 3-{3-[Hydroxy-(3-methoxy-phenyl)-methyl]-pyridin-4-yl}-benzonitrile], which EC50 is on record?
Answer: 13.7 µM

Question: With `CCOC(=O)c1cnc2cc(C(F)(F)F)ccc2c1-c1cc(CO)ccc1OC` [Compound 14, 4-(5-Hydroxymethyl-2-methoxy-phenyl)-7-trifluoromethyl-quinoline-3-carboxylic acid ethyl ester] as the compound, how does the EC50 read?
Answer: 4.56 µM

Question: Which “% Stimulation” value does the source give for `Cc1cc(C)c(C(O)c2cnccc2-c2cccc(C#N)c2)c(C)c1` (centres unmarked) [Compound 35, 3-{3-[Hydroxy-(2,4,6-trimethyl-phenyl)-methyl]-pyridin-4-yl}-benzonitrile] here?
Answer: 37%

Question: What about the EC50 of the same compound?
Answer: > 30 µM

Question: `N#Cc1cccc(-c2ccncc2C(O)c2ccccc2)c1` (centres unmarked) [Compound 19, 3-[3-(Hydroxy-phenyl-methyl)-pyridin-4-yl]-benzonitrile] was tested. Which EC50 did it give?
Answer: 9.63 µM

Question: How did the “% Stimulation” value turn out when `CCOC(=O)c1cnc2cc(C(F)(F)F)ccc2c1-c1cccc(CO)c1` [Compound 12, 4-(3-Hydroxymethyl-phenyl)-7-trifluoromethyl-quinoline-3-carboxylic acid ethyl ester] was run?
Answer: 20%

Question: And the EC50?
Answer: > 30 µM

Question: How did the EC50 turn out when `O=C(c1ccccc1)c1ccncc1C(O)c1cccc(F)c1` (centres unmarked) [Compound 47, {3-[(3-Fluoro-phenyl)-hydroxy-methyl]-pyridin-4-yl}-phenyl-methanone] was run?
Answer: 5.09 µM

Question: Which EC50 does the source give for `N#Cc1cccc(-c2ccncc2C(O)c2ccc(Cl)cc2)c1` (centres unmarked) [Compound 26, 3-{3-[(4-Chloro-phenyl)-hydroxy-methyl]-pyridin-4-yl}-benzonitrile] here?
Answer: 10.2 µM

Question: Which EC50 does the source give for `Cc1ccc(C(O)c2cnccc2-c2cccc(C#N)c2)cc1F` (centres unmarked) [Compound 22, 3-{3-[(3-Fluoro-4-methyl-phenyl)-hydroxy-methyl]-pyridin-4-yl}-benzonitrile] here?
Answer: 15.1 µM

Question: Which results are given for `COc1ccc(C=O)cc1-c1ccncc1C=O` [Compound 53, 4-(5-Formyl-2-methoxy-phenyl)-pyridine-3-carbaldehyde]?
Answer: % Stimulation: 30%; EC50: > 30 µM

Question: `CN(C)c1ccc(C(O)c2cnccc2C(=O)c2ccccc2)cc1` (centres unmarked) [Compound 44, {3-[(4-Dimethylamino-phenyl)-hydroxy-methyl]-pyridin-4-yl}-phenyl-methanone] was tested. Which EC50 did it give?
Answer: 17.4 µM

Question: `CC(O)c1cnccc1C(=O)c1ccccc1` (centres unmarked) [Compound 59, [3-(1-Hydroxy-ethyl)-pyridin-4-yl]-phenyl-methanone] was tested. Which EC50 did it give?
Answer: 26.8 µM
